According to US6762174B1 (priority 1998, dated 2004):
Read-outs that look alike come from different tables or passages of the source.

What was measured:
[1] = system: MT-1 breast cancer xenograft; assay: MT-1 breast cancer xenograft, second experiment: BT on day 3 only; type: in vivo, male nude mice
Experimental: In the second experiment with MT-1 breast cancer, BT was administered on day three only, at doses of […] to 3 micrograms/kg. The T/C ratio of treated vs. control median RTV was measured on day 28. […] The other doses of BT (30 ng, 3 ng, 0.3 ng, and 0.03 ng) alone were not effective in this experiment. These observations of RTV were made only through day 28.

[2] = system: MT-1 breast cancer xenograft
[3] = system: MT-1 breast cancer xenograft; remark: listed apart in the source
[4] = system: MOPC-315 myeloma; assay: MOPC-315 Myeloma study #1: β-alethine ip day 2 (1 × 10^6 tumor cells)
[5] = system: MT-1 breast cancer xenograft; assay: MT-1 breast cancer xenograft: BT by intratumor injection; type: in vivo, male nude mice; set-up: Median RTV: unit not given here; conditions: for Median RTV: BT 30 ng intratumor
Experimental: In a parallel experiment, a low dose of 30 ng of BT was injected directly into the tumor on days 3, 17 and 31. The T/C for RTV measured on day 35 was 50%.

NCCC(=O)NCCSSCCNC(=O)CCN [BT, β-alethine]
effectiveness ([1]; BT 30 ng, 3 ng, 0.3 ng, 0.03 ng alone): not effective
T/C ratio of median RTV ([1]; BT 300 ng/kg day 3, day 28): 42%
Median RTV ([1]; BT 300 ng/kg on Day 3, day 8): 1.105
Median RTV ([1]; BT 300 ng/kg on Day 3, day 14): 1.243
Median RTV ([1]; BT 300 ng/kg on Day 3, day 21): 2.532
Median RTV ([1]; BT 300 ng/kg on Day 3, day 28): 3.317
T/C ratio of median RTV ([1]; BT 3 ug/kg day 3, day 28): 32%
Median RTV ([1]; BT 3 ug/kg on Day 3, day 8): 1.012
Median RTV ([1]; BT 3 ug/kg on Day 3, day 14): 0.955
Median RTV ([1]; BT 3 ug/kg on Day 3, day 21): 1.756
Median RTV ([1]; BT 3 ug/kg on Day 3, day 28): 2.526
T/C RTV d 49 ([2]; BT 30 mg/kg): 72%
T/C RTV d 59 ([2]; BT 30 mg/kg): 165%
effectiveness ([2]; BT 30 mg/kg alone): not effective
WBC d 46 ([2]; mouse, in vivo): 14.4 10^6/mL
Median Tumor Size ([3]; BT 30 ng/kg every 14 days, day 13): 0.080 cm^3
Median Tumor Size ([3]; BT 30 ng/kg every 14 days, day 16): 0.104 cm^3
Median Tumor Size ([3]; BT 30 ng/kg every 14 days, day 20): 0.176 cm^3
Median Tumor Size ([3]; BT 30 ng/kg every 14 days, day 23): 0.202 cm^3
Median Tumor Size ([3]; BT 30 ng/kg every 14 days, day 27): 0.250 cm^3
Median Tumor Size ([3]; BT 30 ng/kg every 14 days, day 30): 0.294 cm^3
Median Tumor Size ([3]; BT 30 ng/kg every 14 days, day 34): 0.298 cm^3
Median Tumor Size ([3]; BT 30 ng/kg every 14 days, day 38): 0.426 cm^3
Median Tumor Size ([3]; BT 30 ng/kg every 14 days, day 41): 0.429 cm^3
Median Tumor Size ([3]; BT 30 ng/kg every 14 days, day 45): 0.419 cm^3
RTV ([3]; BT 30 ng, day 13): 1
RTV ([3]; BT 30 ng, day 16): 1.4
RTV ([3]; BT 30 ng, day 20): 2.1
RTV ([3]; BT 30 ng, day 23): 2.3
RTV ([3]; BT 30 ng, day 27): 2.8
RTV ([3]; BT 30 ng, day 30): 3.4
RTV ([3]; BT 30 ng, day 34): 3.8
RTV ([3]; BT 30 ng, day 38): 4.5
RTV ([3]; BT 30 ng, day 41): 4.9
RTV ([3]; BT 30 ng, day 45): 6.0
Median Tumor Size ([3]; BT 30 ug/kg every 14 days, day 13): 0.055 cm^3
Median Tumor Size ([3]; BT 30 ug/kg every 14 days, day 16): 0.095 cm^3
Median Tumor Size ([3]; BT 30 ug/kg every 14 days, day 20): 0.180 cm^3
Median Tumor Size ([3]; BT 30 ug/kg every 14 days, day 23): 0.193 cm^3
Median Tumor Size ([3]; BT 30 ug/kg every 14 days, day 27): 0.325 cm^3
Median Tumor Size ([3]; BT 30 ug/kg every 14 days, day 30): 0.408 cm^3
Median Tumor Size ([3]; BT 30 ug/kg every 14 days, day 34): 0.410 cm^3
Median Tumor Size ([3]; BT 30 ug/kg every 14 days, day 38): 0.607 cm^3
Median Tumor Size ([3]; BT 30 ug/kg every 14 days, day 41): 0.696 cm^3
Median Tumor Size ([3]; BT 30 ug/kg every 14 days, day 45): 0.743 cm^3
RTV ([3]; BT 30 ug, day 13): 1
RTV ([3]; BT 30 ug, day 16): 1.4
RTV ([3]; BT 30 ug, day 20): 2.6
RTV ([3]; BT 30 ug, day 23): 3.0
RTV ([3]; BT 30 ug, day 27): 4.3
RTV ([3]; BT 30 ug, day 30): 5.2
RTV ([3]; BT 30 ug, day 34): 6.0
RTV ([3]; BT 30 ug, day 38): 9.1
RTV ([3]; BT 30 ug, day 41): 11.5
RTV ([3]; BT 30 ug, day 45): 14.0
Median Tumor Size ([3]; BT 30 fg/kg every 14 days, day 13): 0.104 cm^3
Median Tumor Size ([3]; BT 30 fg/kg every 14 days, day 16): 0.128 cm^3
Median Tumor Size ([3]; BT 30 fg/kg every 14 days, day 20): 0.213 cm^3
Median Tumor Size ([3]; BT 30 fg/kg every 14 days, day 23): 0.253 cm^3
Median Tumor Size ([3]; BT 30 fg/kg every 14 days, day 27): 0.442 cm^3
Median Tumor Size ([3]; BT 30 fg/kg every 14 days, day 30): 0.637 cm^3
Median Tumor Size ([3]; BT 30 fg/kg every 14 days, day 34): 1.062 cm^3
Median Tumor Size ([3]; BT 30 fg/kg every 14 days, day 38): 1.241 cm^3
Median Tumor Size ([3]; BT 30 fg/kg every 14 days, day 41): 1.464 cm^3
Median Tumor Size ([3]; BT 30 fg/kg every 14 days, day 45): 1.911 cm^3
RTV ([3]; BT 30 fg, day 13): 1
RTV ([3]; BT 30 fg, day 16): 1.6
RTV ([3]; BT 30 fg, day 20): 3.4
RTV ([3]; BT 30 fg, day 23): 4.4
RTV ([3]; BT 30 fg, day 27): 7.6
RTV ([3]; BT 30 fg, day 30): 9.3
RTV ([3]; BT 30 fg, day 34): 11.9
RTV ([3]; BT 30 fg, day 38): 16.1
RTV ([3]; BT 30 fg, day 41): 18.2
RTV ([3]; BT 30 fg, day 45): 19.8
Animals Surviving ([4]; BT 3 ng/kg, day 10): 10
Animals Surviving ([4]; BT 3 ng/kg, day 11): 10
Animals Surviving ([4]; BT 3 ng/kg, day 12): 10
Animals Surviving ([4]; BT 3 ng/kg, day 13): 9
Animals Surviving ([4]; BT 3 ng/kg, day 14): 8
Animals Surviving ([4]; BT 3 ng/kg, day 15): 7
Animals Surviving ([4]; BT 3 ng/kg, day 16): 6
Animals Surviving ([4]; BT 3 ng/kg, day 17): 4
Animals Surviving ([4]; BT 3 ng/kg, day 18): 3
Animals Surviving ([4]; BT 3 ng/kg, day 19): 3
Animals Surviving ([4]; BT 3 ng/kg, day 20): 2
Animals Surviving ([4]; BT 3 ng/kg, day 21): 0
Animals Surviving ([4]; BT 100 μg/kg, day 10): 10
Animals Surviving ([4]; BT 100 μg/kg, day 11): 10
Animals Surviving ([4]; BT 100 μg/kg, day 12): 10
Animals Surviving ([4]; BT 100 μg/kg, day 13): 10
Animals Surviving ([4]; BT 100 μg/kg, day 14): 7
Animals Surviving ([4]; BT 100 μg/kg, day 15): 6
Animals Surviving ([4]; BT 100 μg/kg, day 16): 6
Animals Surviving ([4]; BT 100 μg/kg, day 17): 5
Animals Surviving ([4]; BT 100 μg/kg, day 18): 3
Animals Surviving ([4]; BT 100 μg/kg, day 19): 3
Animals Surviving ([4]; BT 100 μg/kg, day 20): 1
Animals Surviving ([4]; BT 100 μg/kg, day 21): 0
Animals Surviving ([4]; BT 3 mg/kg, day 10): 10
Animals Surviving ([4]; BT 3 mg/kg, day 11): 10
Animals Surviving ([4]; BT 3 mg/kg, day 12): 10
Animals Surviving ([4]; BT 3 mg/kg, day 13): 10
Animals Surviving ([4]; BT 3 mg/kg, day 14): 7
Animals Surviving ([4]; BT 3 mg/kg, day 15): 4
Animals Surviving ([4]; BT 3 mg/kg, day 16): 4
Animals Surviving ([4]; BT 3 mg/kg, day 17): 3
Animals Surviving ([4]; BT 3 mg/kg, day 18): 2
Animals Surviving ([4]; BT 3 mg/kg, day 19): 2
Animals Surviving ([4]; BT 3 mg/kg, day 20): 1
Animals Surviving ([4]; BT 3 mg/kg, day 21): 1
Animals Surviving ([4]; BT 3 mg/kg, day 22): 1
Animals Surviving ([4]; BT 3 mg/kg, day 23): 1
Animals Surviving ([4]; BT 3 mg/kg, day 24): 0
Animals Surviving ([4]; BT 30 fg/kg, day 10): 10
Animals Surviving ([4]; BT 30 fg/kg, day 11): 10
Animals Surviving ([4]; BT 30 fg/kg, day 12): 10
Animals Surviving ([4]; BT 30 fg/kg, day 13): 8
Animals Surviving ([4]; BT 30 fg/kg, day 14): 5
Animals Surviving ([4]; BT 30 fg/kg, day 15): 3
Animals Surviving ([4]; BT 30 fg/kg, day 16): 3
Animals Surviving ([4]; BT 30 fg/kg, day 17): 3
Animals Surviving ([4]; BT 30 fg/kg, day 18): 2
Animals Surviving ([4]; BT 30 fg/kg, day 19): 2
Animals Surviving ([4]; BT 30 fg/kg, day 20): 0
Animals Surviving ([4]; BT 30 fg/kg, day 21): 0
T/C for RTV ([5]; 30 ng BT into the tumor days 3, 17, 31, day 35): 50%
Median RTV ([5]; day 8): 1.27
Median RTV ([5]; day 11): 1.40
Median RTV ([5]; day 14): 1.77
Median RTV ([5]; day 17): 2.61
Median RTV ([5]; day 21): 3.74
Median RTV ([5]; day 24): 4.34
Median RTV ([5]; day 28): 4.93
Median RTV ([5]; day 31): 6.37
Median RTV ([5]; day 35): 8.01
